Measurements: US20020034725A1, “SENSITIZATION OF CELLS TO RADIATION AND AND CHEMOTHERAPY” (priority 1996, published 2002)

Tests used:
[1] = test system: REF-GG cells; assay: SF2 by limiting dilution analysis of clonogens; assay type: cell-based, rat; details: 5 μM FTI-277
Method: FIG. 14B comprises two graphs depicting clonogenic survival of REF-GG cells following treatment with GGTI-298 and irradiation. REF-GG cells were plated at 1 to 5 cells per well in microtiter plates in the absence (top panel) or presence (bottom panel) of 8 μM of the geranylgeranyltransferase inhibitor, GGTI-298. Cells were then irradiated with 2 Gray or were mock irradiated. Cells were re-fed after 24 hours with medium that contained no inhibitor, thus diluting the inhibitor to 0.8 μM. These cells were then incubated for two weeks prior to scoring for colony formation. The data are presented as the natural log of the fraction of negative wells. The surviving fraction at 2 Gray was determined from the differences in the slopes obtained by linear regression of analysis of irradiated and unirradiated cells. The surviving fraction at 2 Gray calculated for cells irradiated after GGTI-298 treatment was 0.64. Control cell surviving fraction after 2 Gray was 0.91. The correlation coefficient for linear regression analysis (r^2) was greater than 0.95 in all cases.
Cells were irradiated with the indicated doses of ionizing radiation and were treated with FTI-277 for 24 hours after irradiation (FIG. 14A). […] The shoulders of the survival curves were reduced as were the overall slopes of the survival curves. […]

[2] = test system: SW480 colon carcinoma cells; assay: Clonogenic radiation survival of SW480 cells; assay type: cell-based, human; details: 30 μM FTI-277, 24 hours before irradiation
Method: SW480 cells were treated for 24 hours with 30 μM FTI-277 before irradiation. Clonogenic survival was subsequently assessed in the cells. Treatment with the inhibitor was maintained for 24 hours after irradiation, at which time medium was replaced with inhibitor free medium. Control cells were treated as above with diluent. Open squares: control cells; closed squares: FTI-277 treated cells.
FIG. 18B is a graph depicting a reduction in the radiation survival of SW480 cells following inhibition of K-ras prenylation by FTI-277 and GGTI-298. SW480 cells were treated for 24 hours with 5 μM FTI-277 and 8 μM GGTI-298 before irradiation and assessment of clonogenic survival. Inhibitor treatment was maintained for 24 hours after irradiation, at which time the medium was replaced with inhibitor free medium. Control cells were treated as above with an equal amount of drug-free diluent. Open squares: control cells; closed squares: FTI and GGTI treated cells.

[3] = test system: wild type c-H-ras; assay: Western blot of ras farnesylation in untransformed REF and MR4 cells; assay type: cell-based, rat
Text: (§1) The oncogene-transfected cells used in this study were all derived from early passage rat embryo fibroblast (REF) by transfection with the pEJ plasmid containing the H-ras gene isolated from the EJ bladder carcinoma. This vector was introduced by calcium phosphate DNA transfer into primary REF, either alone or together with the pMC29 vector containing v-myc. One clone containing both the introduced H-ras gene and the v-myc genes is 3.7 (McKenna et al., 1990, Cancer Res. 50:97-102). 4R and 5R cells were obtained as rare transformants after transfection with the pEJ plasmid alone (McKenna et al., 1993, supra). MR4 cells were immortalized by transfection with an expression vector comprising v-myc linked to a neomycin-resistant selectable marker (McKenna et al., 1991, Radiat. Res. 125:283-287). REF-GG cells were obtained by transforming REF cells with a chimeric H-ras(v12) in which the CAAX motif is CVLL. All cell lines were mycoplasma free.
(§2) Cells were lysed in culture dishes with 1 x reducing Laemmli sample buffer. Samples were boiled, sheared and clarified by centrifugation at 14,000 rpm in a microfuge before storage at −20° C. Samples containing equal amounts of protein were separated on a 12% SDS polyacrylamide gel and electrophoretically transferred to nitrocellulose membranes. Membranes were blocked for 1-2 hours in PBS containing 0.1% Tween-20 and 5% powdered milk before antibody addition. Membranes were probed with monoclonal pan-ras antibody AB-4 (Oncogene Science, Uniondale, N.Y.) at a concentration of 0.5 μg/ml, or with monoclonal H-ras antibody LA069 (1:5000 dilution; Quality Biotech, Camden, N.J.). Detection of protein was accomplished using the ECL chemiluminescence kit (Amersham, Arlington Heights, Ill.). Images were digitized using an Arcus II scanner, and figures were assembled using Adobe Photoshop 3.0.

[4] = test system: mouse prostate tumor cells transformed with H-ras^v12 and myc; assay: Radiation induced apoptosis of mouse prostate tumor cells; assay type: cell-based; details: doses which inhibited ras farnesylation, 10 Gray
Method: FIG. 13B is a graph depicting the effects of the inhibitor, FTI-277, at the concentrations indicated (μM) on radiation induced apoptosis of prostate tumor cells. Cells were treated with FTI-277 for 24 hours before irradiation with 10 Gray. Apoptosis was quantitated 24 hours after irradiation by scoring for changes in nuclear morphology following staining of the cells with propidium iodide. Panel A depicts prostate tumor cells cultured from a primary tumor. Panel B depicts prostate tumor cells cultured from an isolated metastasis derived from the tumor.
3×10^3 cells/well in 24-well plates were allowed to attach for 12 hours and were then treated with medium containing FTI-277 in DMSO or an equivalent volume of DMSO without inhibitor. Twenty four hours after irradiation with 10 Gray using the irradiator described above, both adherent and non-adherent cells were harvested. Cells were stained with propidium iodide (Muschel et al., 1995, Cancer Res. 55:995-998). A minimum of three independent fields of 100 cells were counted for each sample. Scoring of samples was performed in a double blind manner.

[5] = test system: H-ras^v12; assay: Western blot of H-ras farnesylation in H-ras transformed REF cells (3.7, 4R, 5R); assay type: cell-based, rat
Text: as §1, §2
Transformed REF cells derived from the R5 cell line were treated with 5 μm FTI-277 to establish a time course for the accumulation of unfarnesylated H-ras. Prenylated forms of ras migrate more rapidly than unprenylated ras on SDSpolyacrylamide gels (Gutierrez et al., 1989, EMBO J. 8:1093-1098; Farh et al., 1995, Arch. Biochem. Biophys. 18:113-121). This shift in motility was used to assess the prenylation status of H-ras after farnesyltransferase inhibitor treatment.

COC(=O)[C@H](CCSC)NC(=O)c1ccc(NC[C@@H](N)CS)cc1-c1ccccc1 [FTI-277]
SF2 (surviving fraction at 2 Gray) [1]: 0.81 | radiation survival [2]: reduction in radiation survival | migration of ras ([3]; MR4 cells, up to 10 μm, pan-ras antibody): no changes in the migration of ras | H-ras farnesylation status ([3]; untransformed REF, doses of up to 30 μM): majority of the H-ras remained in the farnesylated form | radiation-induced apoptosis [4]: significant increase in apoptosis | H-ras farnesylation status ([5]; 3.7, 4R and 5R cells, 2.5 to 10 μm, 24 hours): primarily unfarnesylated | time by which detectable farnesylated H-ras was observed after removal of inhibitor ([5]; 3.7 cells, 5 μm for 30 hours, then removed): ≤ 2 h | H-ras in the farnesylated form after removal of inhibitor ([5]; 3.7 cells, 6 hours after removal): about 50% | form of H-ras after removal of inhibitor ([5]; 3.7 cells, 24 hours after removal): majority of the H-ras in the cells was in the farnesylated form | time by which conversion of H-ras to the slower moving form was observed ([5]; 5R cells, 5 μm FTI-277): ≤ 4 h | detectable H-ras in the unfarnesylated form ([5]; 5R cells, 5 μm FTI-277, 6-8 hours after addition): approximately 50% | time to reversal of accumulation of unfarnesylated H-ras after removal of inhibitor ([5]; H-ras transformed REF cells): ≤ 24 h
